IC50 data for 17 molecules are collected here from US20250154115A1, “ARYLBENZOISOXAZOLE COMPOUNDS AS IP6K AND IPMK INHIBITORS AND METHODS OF USE THEREOF” (THE UNIVERSITY OF NORTH CAROLINA AT CHAPEL HILL, priority 2022, published 2025).

What all share (format): biochemical
One assay addresses IPMK (Homo sapiens (Human), UniProt Q8NFU5). The assay can be described thus: Enzyme-coupled assay, IPMK IC50.
The next assay has as its target IP6K3 (Homo sapiens (Human), UniProt Q96PC2). Description: Enzyme-coupled assay of IP6K3 activity (Dipp1-coupled, malachite green Pi release).
A further assay has as its target IP6K2 (Homo sapiens (Human), UniProt Q9UHH9). Description: Enzyme-coupled assay of IP6K2 activity (Dipp1-coupled, malachite green Pi release). The procedure:
(§1) […] The cells were disrupted using a constant cell disruption system (Constant Systems) under 20 kPsi.
(§2) Pi release was determined with a malachite green colorimetric assay.^45 Where indicated, TNP (Cayman Chemical) was added to the assays (FIG. 2A-E).

The target of a further assay is IP6K1 (Homo sapiens (Human), UniProt Q92551). Description: Enzyme-coupled assay of IP6K1 activity (Dipp1-coupled, malachite green Pi release). The procedure:
as §1, §2

[1] abbreviates: determined from enzyme-coupled assays.

Sequence of IP6K2 (Q9UHH9 whole entry): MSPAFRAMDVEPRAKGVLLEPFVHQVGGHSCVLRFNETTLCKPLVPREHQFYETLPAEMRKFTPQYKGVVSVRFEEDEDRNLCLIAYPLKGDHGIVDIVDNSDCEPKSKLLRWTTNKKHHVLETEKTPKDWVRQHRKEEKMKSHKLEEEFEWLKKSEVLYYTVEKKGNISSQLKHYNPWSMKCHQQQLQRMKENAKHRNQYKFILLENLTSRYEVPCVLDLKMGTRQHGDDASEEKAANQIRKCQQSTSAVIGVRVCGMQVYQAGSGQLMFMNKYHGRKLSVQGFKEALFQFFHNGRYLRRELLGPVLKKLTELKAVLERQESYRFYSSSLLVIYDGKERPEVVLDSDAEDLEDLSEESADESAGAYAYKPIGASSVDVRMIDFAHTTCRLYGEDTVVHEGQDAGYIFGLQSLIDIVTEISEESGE
Sequence of IP6K3 (Q96PC2 whole entry): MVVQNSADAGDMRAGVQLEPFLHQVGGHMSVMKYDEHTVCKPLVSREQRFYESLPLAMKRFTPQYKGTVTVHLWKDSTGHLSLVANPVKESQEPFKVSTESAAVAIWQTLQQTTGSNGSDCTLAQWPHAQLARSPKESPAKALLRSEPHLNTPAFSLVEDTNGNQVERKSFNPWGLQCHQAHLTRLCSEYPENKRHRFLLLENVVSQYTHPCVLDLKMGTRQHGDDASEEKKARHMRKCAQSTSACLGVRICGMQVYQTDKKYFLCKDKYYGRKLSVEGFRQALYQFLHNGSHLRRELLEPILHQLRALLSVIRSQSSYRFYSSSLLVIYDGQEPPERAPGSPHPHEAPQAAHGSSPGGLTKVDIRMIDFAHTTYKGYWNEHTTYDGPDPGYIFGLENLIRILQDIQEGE
Sequence of IP6K1 (Q92551 whole entry): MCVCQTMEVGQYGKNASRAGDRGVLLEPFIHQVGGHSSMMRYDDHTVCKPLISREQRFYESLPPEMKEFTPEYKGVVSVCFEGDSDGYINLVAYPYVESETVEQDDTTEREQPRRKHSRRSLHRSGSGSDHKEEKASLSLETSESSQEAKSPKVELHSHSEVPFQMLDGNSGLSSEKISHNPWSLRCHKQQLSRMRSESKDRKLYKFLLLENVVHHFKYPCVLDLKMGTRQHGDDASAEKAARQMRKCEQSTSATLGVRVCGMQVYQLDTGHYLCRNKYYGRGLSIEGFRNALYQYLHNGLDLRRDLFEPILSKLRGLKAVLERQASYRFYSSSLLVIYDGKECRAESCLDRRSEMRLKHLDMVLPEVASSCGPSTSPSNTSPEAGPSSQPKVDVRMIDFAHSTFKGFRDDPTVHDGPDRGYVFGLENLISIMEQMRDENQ
Sequence of IPMK (Q8NFU5 whole entry, species assumed): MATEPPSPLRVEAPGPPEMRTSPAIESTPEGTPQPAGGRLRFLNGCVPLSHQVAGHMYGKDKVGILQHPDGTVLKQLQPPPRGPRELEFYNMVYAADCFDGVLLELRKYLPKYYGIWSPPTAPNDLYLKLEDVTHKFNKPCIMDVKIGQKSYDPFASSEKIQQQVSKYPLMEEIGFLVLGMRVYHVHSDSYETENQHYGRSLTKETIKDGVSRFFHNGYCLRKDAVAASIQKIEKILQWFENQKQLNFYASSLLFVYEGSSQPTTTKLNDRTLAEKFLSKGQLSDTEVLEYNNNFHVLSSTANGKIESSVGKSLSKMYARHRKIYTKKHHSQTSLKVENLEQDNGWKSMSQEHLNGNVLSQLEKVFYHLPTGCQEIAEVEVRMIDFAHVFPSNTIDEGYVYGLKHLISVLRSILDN

Regarding `FC(F)(F)Oc1ccc(-c2onc3ccc(-c4nnn[nH]4)cc23)cc1` [Compound 66], the IC50 on IPMK (enzyme-coupled assay, Table 4) was in the range of 10 to 100 nM; against IP6K3 (enzyme-coupled assay, Table 4), 100 to 1000 nM; against IP6K2 (enzyme-coupled assay, Table 4), 10 to 100 nM; at IP6K1 (enzyme-coupled assay, Table 4), 10 to 100 nM.

Turning to `O=C(Nc1ccc(-c2onc3ccc(-c4nnn[nH]4)cc23)cc1)C1CCCC1` [Compound 72], the IC50 on IPMK (enzyme-coupled assay, Table 4) is 10 to 100 nM; on IP6K3 (enzyme-coupled assay, Table 4), below 10 nM; against IP6K2 (enzyme-coupled assay, Table 4), 10 to 100 nM; against IP6K1 (enzyme-coupled assay, Table 4), 10 to 100 nM.

Take `c1ccc(-c2onc3ccc(-c4nnn[nH]4)cc23)cc1` [Compound 59]: the half-maximal inhibitory concentration (IC50) is 10 to 100 nM at IPMK (enzyme-coupled assay, Table 4); 100 to 1000 nM on IP6K3 (enzyme-coupled assay, Table 4); 10 to 100 nM on IP6K2 (enzyme-coupled assay, Table 4); 10 to 100 nM against IP6K1 (enzyme-coupled assay, Table 4).

Regarding `O=C(Nc1ccc(-c2onc3ccc(-c4noc(=O)[nH]4)cc23)cc1)C1CC1` [Cmpd 126], the half-inhibitory concentration (IC50) lay within 10 to 100 nM at IPMK (setting [1]), 10 to 100 nM at IP6K3 (setting [1]), 100 to 1000 nM on IP6K2 (setting [1]) and 100 to 1000 nM at IP6K1 (setting [1]).

On to `O=C(CC1CCOCC1)Nc1ccc(-c2onc3ccc(C(=O)O)cc23)cc1` [Compound 37], for which the IC50 is 1000 to 100000 nM against IPMK (enzyme-coupled assay, Table 2); 1000 to 100000 nM against IP6K3 (enzyme-coupled assay, Table 2); 1000 to 100000 nM against IP6K2 (enzyme-coupled assay, Table 2); 1000 to 100000 nM against IP6K1 (enzyme-coupled assay, Table 2).

`O=C(Nc1cccc(-c2onc3ccc(-c4nnn[nH]4)cc23)c1)C1CC1` [Compound 74]: the IC50 is below 10 nM against IPMK (enzyme-coupled assay, Table 4); 10 to 100 nM against IP6K3 (enzyme-coupled assay, Table 4); 10 to 100 nM at IP6K2 (enzyme-coupled assay, Table 4); 10 to 100 nM against IP6K1 (enzyme-coupled assay, Table 4).

`CC(C)C(=O)Nc1cccc(-c2onc3ccc(-c4nnn[nH]4)cc23)c1` [Compound 75]: the 50% inhibitory concentration (IC50) was below 10 nM at IPMK (enzyme-coupled assay, Table 4); 100 to 1000 nM against IP6K3 (enzyme-coupled assay, Table 4); 100 to 1000 nM at IP6K2 (enzyme-coupled assay, Table 4); 100 to 1000 nM at IP6K1 (enzyme-coupled assay, Table 4).

For the molecule `Fc1ccc(-c2onc3ccc(-c4nnn[nH]4)cc23)cc1` [Compound 63], the half-inhibitory concentration (IC50) at IPMK (enzyme-coupled assay, Table 4) lay within 10 to 100 nM; against IP6K3 (enzyme-coupled assay, Table 4), 100 to 1000 nM; against IP6K2 (enzyme-coupled assay, Table 4), 10 to 100 nM; against IP6K1 (enzyme-coupled assay, Table 4) it was 10 to 100 nM.

Regarding `c1cc(OCCN2CCOCC2)cc(-c2onc3ccc(-c4nnn[nH]4)cc23)c1` [Compound 83], the IC50 against IPMK (enzyme-coupled assay, Table 4) lay within 10 to 100 nM; at IP6K3 (enzyme-coupled assay, Table 4), 100 to 1000 nM; against IP6K2 (enzyme-coupled assay, Table 4), 100 to 1000 nM; against IP6K1 (enzyme-coupled assay, Table 4), 10 to 100 nM.

As to `Clc1ccc(-c2onc3ccc(-c4nnn[nH]4)cc23)cc1Cl` [Compound 67], the 50% inhibitory concentration (IC50) on IPMK (enzyme-coupled assay, Table 4) lay in the range of 10 to 100 nM; against IP6K3 (enzyme-coupled assay, Table 4), 100 to 1000 nM; against IP6K2 (enzyme-coupled assay, Table 4) it was 100 to 1000 nM; against IP6K1 (enzyme-coupled assay, Table 4) it was 10 to 100 nM.

As to `c1ccc(-c2onc3ccc(-n4cncn4)cc23)cc1` [Compound 61], the IC50 against IPMK (enzyme-coupled assay, Table 4) lay within 10 to 100 nM; on IP6K3 (enzyme-coupled assay, Table 4) it was 1000 to 100000 nM; against IP6K2 (enzyme-coupled assay, Table 4), 1000 to 100000 nM; against IP6K1 (enzyme-coupled assay, Table 4), 1000 to 100000 nM.

With `O=C(Nc1cccc(-c2onc3ccc(-c4nnn[nH]4)cc23)c1)C1CCCC1` [Compound 73], the IC50 at IPMK (enzyme-coupled assay, Table 4) was below 10 nM; on IP6K3 (enzyme-coupled assay, Table 4), 10 to 100 nM; on IP6K2 (enzyme-coupled assay, Table 4), 10 to 100 nM; on IP6K1 (enzyme-coupled assay, Table 4), 10 to 100 nM.

Take `Clc1cnc(Oc2cccc(-c3onc4ccc(-c5nnn[nH]5)cc34)c2)c(Cl)c1` [Compound 80]: the IC50 against IPMK (enzyme-coupled assay, Table 4) was 10 to 100 nM; on IP6K3 (enzyme-coupled assay, Table 4), 10 to 100 nM; at IP6K2 (enzyme-coupled assay, Table 4), 10 to 100 nM; against IP6K1 (enzyme-coupled assay, Table 4), 10 to 100 nM.

With `O=C(Nc1ccc(-c2onc3ccc(-c4nnn[nH]4)cc23)cc1)C1CC1` [Compound 71], the IC50 on IPMK (enzyme-coupled assay, Table 4) is below 10 nM; on IP6K3 (enzyme-coupled assay, Table 4) it was below 10 nM; on IP6K2 (enzyme-coupled assay, Table 4), 100 to 1000 nM; against IP6K1 (enzyme-coupled assay, Table 4), 10 to 100 nM.

Turning to `Cc1cc(C)cc(-c2onc3ccc(-c4nnn[nH]4)cc23)c1` [Compound 65], the IC50 on IPMK (enzyme-coupled assay, Table 4) was 10 to 100 nM; on IP6K3 (enzyme-coupled assay, Table 4), 100 to 1000 nM; at IP6K2 (enzyme-coupled assay, Table 4) it was 10 to 100 nM; at IP6K1 (enzyme-coupled assay, Table 4), 10 to 100 nM.

With `O=C(O)c1ccc2noc(-c3ccc(NC(=O)c4ccc(Cl)cc4)cc3)c2c1` [Compound 45], the IC50 against IPMK (enzyme-coupled assay, Table 2) lay in the range of 1000 to 100000 nM; on IP6K3 (enzyme-coupled assay, Table 2), 1000 to 100000 nM; against IP6K2 (enzyme-coupled assay, Table 2), 100 to 1000 nM; on IP6K1 (enzyme-coupled assay, Table 2), 100 to 1000 nM.

For the molecule `O=C(O)c1ccc2noc(-c3ccc(C(=O)NCCC4CC4)cc3)c2c1` [Compound 39], the half-maximal inhibitory concentration (IC50) at IPMK (enzyme-coupled assay, Table 2) fell in the range of 100 to 1000 nM; on IP6K3 (enzyme-coupled assay, Table 2), 100 to 1000 nM; at IP6K2 (enzyme-coupled assay, Table 2), 100 to 1000 nM; at IP6K1 (enzyme-coupled assay, Table 2), 100 to 1000 nM.
